Measured values: ChEMBL document CHEMBL5223109, “The discovery of BMS-737 as a potent, CYP17 lyase-selective inhibitor for the treatment of castration-resistant prostate cancer” (Bioorg Med Chem Lett, 2022)

How the values were obtained:
Cytochrome P450 1A2 [1] = biological target: T1, Cytochrome P450 1A2 (Homo sapiens, UniProt P05177); test: Inhibition of CYP1A2 (unknown origin); type: ADME
T1 sequence (P05177 whole entry): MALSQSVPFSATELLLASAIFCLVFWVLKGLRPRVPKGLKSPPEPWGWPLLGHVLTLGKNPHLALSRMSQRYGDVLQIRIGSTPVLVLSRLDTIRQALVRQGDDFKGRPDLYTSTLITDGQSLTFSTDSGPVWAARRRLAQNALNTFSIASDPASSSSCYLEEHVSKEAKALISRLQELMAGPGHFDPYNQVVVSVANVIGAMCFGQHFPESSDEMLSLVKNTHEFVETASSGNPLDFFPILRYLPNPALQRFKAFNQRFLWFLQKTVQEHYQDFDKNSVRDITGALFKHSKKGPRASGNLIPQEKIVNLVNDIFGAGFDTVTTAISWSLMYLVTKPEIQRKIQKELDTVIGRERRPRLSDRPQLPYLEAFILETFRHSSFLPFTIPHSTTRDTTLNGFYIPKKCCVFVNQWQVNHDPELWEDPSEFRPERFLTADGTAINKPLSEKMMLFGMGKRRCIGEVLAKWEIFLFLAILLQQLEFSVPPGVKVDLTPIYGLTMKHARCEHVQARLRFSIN

[2] = biological target: T2, Steroid 17-alpha-hydroxylase/17,20 lyase (Macaca fascicularis, UniProt Q2XVA1); test: Inhibition of cynomolgus monkey CYP17A1 lyase activity; type: ADME
T2 sequence (Q2XVA1 whole entry): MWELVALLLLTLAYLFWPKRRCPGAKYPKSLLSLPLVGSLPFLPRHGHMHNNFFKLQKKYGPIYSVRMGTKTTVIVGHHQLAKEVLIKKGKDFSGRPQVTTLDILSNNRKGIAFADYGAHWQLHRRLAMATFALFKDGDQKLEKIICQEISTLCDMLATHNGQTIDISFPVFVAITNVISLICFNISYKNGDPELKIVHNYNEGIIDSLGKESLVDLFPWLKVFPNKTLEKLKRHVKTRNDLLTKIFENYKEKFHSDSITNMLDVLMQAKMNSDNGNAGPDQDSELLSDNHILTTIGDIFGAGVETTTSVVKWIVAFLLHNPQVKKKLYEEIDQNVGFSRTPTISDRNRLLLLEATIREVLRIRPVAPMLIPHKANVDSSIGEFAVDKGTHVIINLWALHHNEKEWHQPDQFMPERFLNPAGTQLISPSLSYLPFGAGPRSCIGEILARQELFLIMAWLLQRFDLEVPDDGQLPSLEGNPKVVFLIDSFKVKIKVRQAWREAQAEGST

[3] = biological target: T3, Steroid 17-alpha-hydroxylase/17,20 lyase (Homo sapiens, UniProt P05093); test: Inhibition of human adrenal gland CYP17A1; type: ADME, tissue-based
T3 sequence (P05093 whole entry): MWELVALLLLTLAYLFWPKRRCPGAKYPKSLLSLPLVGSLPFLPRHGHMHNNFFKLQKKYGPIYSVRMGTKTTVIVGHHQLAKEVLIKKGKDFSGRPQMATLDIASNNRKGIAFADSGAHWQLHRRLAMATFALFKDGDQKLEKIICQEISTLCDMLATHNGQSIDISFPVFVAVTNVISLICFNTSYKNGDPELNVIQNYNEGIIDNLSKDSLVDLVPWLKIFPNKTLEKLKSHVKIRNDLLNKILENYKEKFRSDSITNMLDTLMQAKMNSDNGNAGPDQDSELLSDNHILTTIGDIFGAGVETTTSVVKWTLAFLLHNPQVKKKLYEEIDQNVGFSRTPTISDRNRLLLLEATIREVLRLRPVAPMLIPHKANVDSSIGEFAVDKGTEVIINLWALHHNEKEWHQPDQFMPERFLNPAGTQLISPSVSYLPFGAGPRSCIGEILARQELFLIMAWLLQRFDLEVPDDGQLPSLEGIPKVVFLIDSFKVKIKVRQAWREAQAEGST

[4] = biological target: T2, Steroid 17-alpha-hydroxylase/17,20 lyase; test: Inhibition of cynomolgus monkey adrenal gland CYP17A1; type: ADME, tissue-based
[5] = Inhibition of cynomolgus monkey CYP21A2; type: ADME, Macaca fascicularis
[6] = Inhibition of cynomolgus monkey CYP11B1; type: ADME, Macaca fascicularis
[7] = Metabolic stability in human liver microsome assessed as half-life; type: ADME; conditions: liver microsomes
[8] = Permeability across apical to basolateral side in human Caco-2 cells; type: ADME, cell-based; conditions: read-out: permeability
[9] = Permeability across basolateral to apical side in human Caco-2 cells; type: ADME, cell-based; conditions: read-out: permeability
[10] = biological target: T4, Nuclear receptor subfamily 1 group I member 2 (Homo sapiens, UniProt O75469); test: Inhibition of PXR (unknown origin)
T4 sequence (O75469 whole entry): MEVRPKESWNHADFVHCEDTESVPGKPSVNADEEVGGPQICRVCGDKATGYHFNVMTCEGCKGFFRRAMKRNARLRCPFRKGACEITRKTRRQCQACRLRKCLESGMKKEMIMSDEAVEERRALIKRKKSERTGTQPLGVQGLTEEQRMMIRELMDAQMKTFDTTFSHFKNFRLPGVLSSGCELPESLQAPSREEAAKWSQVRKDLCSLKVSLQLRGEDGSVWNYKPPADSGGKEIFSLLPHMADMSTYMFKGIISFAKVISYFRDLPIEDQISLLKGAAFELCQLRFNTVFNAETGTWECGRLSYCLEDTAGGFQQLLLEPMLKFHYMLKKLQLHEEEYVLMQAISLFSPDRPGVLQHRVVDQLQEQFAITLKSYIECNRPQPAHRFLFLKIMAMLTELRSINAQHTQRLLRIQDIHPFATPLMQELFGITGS

Cytochrome P450 1A2 [11] = biological target: T1, Cytochrome P450 1A2; test: Inhibition of recombinant human CYP1A2; type: ADME
[12] = Tmax in cynomolgus monkey at 1 mg/kg, po; type: ADME, organism-based, Macaca fascicularis; conditions: in vivo
[13] = Half-life in cynomolgus monkey at 1 mg/kg, iv; type: ADME, organism-based, Macaca fascicularis; conditions: in vivo
[14] = biological target: T2, Steroid 17-alpha-hydroxylase/17,20 lyase; test: In vivo inhibition of CYP17A1 in cynomolgus monkey assessed as decrease in testosterone level in blood at 1 mg/kg, po measured upto 24 hrs relative to control; type: functional, organism-based; set-up: scale not given: the % may be the effect or the level left
[15] = biological target: T2, Steroid 17-alpha-hydroxylase/17,20 lyase; test: In vivo inhibition of CYP17A1 in cynomolgus monkey assessed as increase in hydroxyprogesterone level in blood at 1 mg/kg, po measured at 4 hrs; type: functional, organism-based
[16] = biological target: T2, Steroid 17-alpha-hydroxylase/17,20 lyase; test: In vivo inhibition of CYP17A1 in cynomolgus monkey assessed as change in cortisol level in blood at 1 mg/kg, po measured upto 24 hrs; type: functional, organism-based

## Nc1ncncc1-c1ccnc2c1cnn2-c1ccc(F)cc1
Cytochrome P450 1A2 [1]
  IC50: > 40 µM
[2]
  IC50: 6 nM
[3]
  IC50: 30 nM
[4]
  IC50: 2 nM
[5]
  IC50: > 10 µM
[6]
  IC50: > 10 µM
[7]
  half-life: > 120 min
[8]
  Papp A→B: 28.2 ×10⁻⁶ cm/s
[9]
  Papp B→A: 21.2 ×10⁻⁶ cm/s
[10]
  IC50: > 50 µM
Cytochrome P450 1A2 [11]
  IC50: > 40 µM
[12]
  Tmax: 1 h
[13]
  half-life: 960 min
[14]
  Activity: 83%
[15]
  Activity: 7.7 ng/dL
[16]
  inhibition (INH): Not Active
